The values that follow come from US10774051B2, “6-membered heterocyclic derivatives and pharmaceutical composition comprising the same” (Shionogi & Co., Ltd., priority 2015, dated 2020).

One may read the IC50 as the concentration that inhibits the measured activity by half.

For one assay, the target named is human P2X7 receptor (Homo sapiens, UniProt Q99572, R270H/Y155H). The experiment in a line: Evaluation of human P2X7 receptor inhibitory activity (Yo-Pro uptake, BzATP stimulation, FLIPR TETRA). The format is cell-based. The note with it: 1321N1 cells stably expressing human P2X7 receptor; BzATP stimulation, Yo-Pro uptake; read-out: IC50 (antagonistic activity for the human P2X7 receptor). The method, boiled down: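 Yo-Pro dye uptake triggered by BzATP was monitored by FLIPR in human P2X7-transfected 1321N1 cells (SNP variant) in HEPES-buffered HBSS, pH 7.4-7.5. Compound was dispensed 8 min post-stimulation, then signal read for 20 min; IC50 derived logistically from inhibition of the fluorescence range.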
For the compound `COc1cn(Cc2ccccc2)c(Nc2ccc3nc(C)sc3c2C)nc1=O` [Compound I-0858], the IC50 was 0.01 µM. `Cc1nc2cc(C)c(Nc3nc(=O)c(Cl)cn3Cc3ccccc3)cc2s1` [Compound I-0786]: the IC50 is 0.025 µM. For the compound `COc1cn(Cc2ccccc2)c(Nc2ccccc2SC)nc1=O` [Compound I-0382], the IC50 is 0.35 µM. In the case of `CCOc1cc(Nc2nc(=O)c(OC)cn2Cc2ccc(F)c(Cl)c2)c(C)cc1C` [Compound I-0792], the IC50 was determined as 0.009 µM. For `COc1cc(C)c(Nc2nc(=O)c(F)cn2Cc2cc(F)cc(F)c2)cc1C(C)C` [Compound I-1071], the IC50 turned out to be 0.015 µM.

The same assay, now with this note: 1321N1 cells stably expressing human P2X7 receptor; BzATP stimulation, Yo-Pro uptake; read-out: IC50 (antagonistic activity for the human P2X7 receptor), class symbol.
Consider `Cc1c(Cl)cccc1Nc1nc(=O)c(CC(=O)NC2COC2)cn1Cc1ccccc1` [Compound I-0342], for which the IC50 fell in the range of 0.1 to 0.5 µM. Consider `COc1cn(Cc2cc(F)cc(F)c2)c(Nc2cccc(C(F)(F)F)c2C)nc1=O` [Compound I-0470], for which the concentration for half-maximal inhibition (IC50) was in the range of 0.01 to 0.1 µM. The same measure, in the same setting: under `COc1cn(Cc2cccc(Cl)c2)c(Nc2cccc(OC(F)F)c2C)nc1=O` [Compound I-0479] stands 0.01 to 0.1 µM; under `COc1cn(Cc2ccccc2)c(Nc2cccc3[nH]c(C)cc23)nc1=O` [Compound I-0134], 0.01 to 0.1 µM; under `COc1cn(Cc2ccccc2)c(Nc2cc(C)c(OC(F)F)cc2C)nc1=O` [Compound I-0237], below 0.01 µM. Still for that read-out and setting: under `COc1cn(Cc2ccccc2)c(Nc2cccc(C(F)(F)F)c2Cl)nc1=O` [Compound I-0036] stands 0.1 to 0.5 µM; under `CCc1c(Nc2nc(=O)c(F)cn2Cc2cccc(Cl)c2)cc(OC)cc1OC` [Compound I-0315], below 0.01 µM. Still for that read-out and setting: next, `COc1cn(Cc2ccc(F)c(Cl)c2)c(Nc2cc(C)c(OC(F)F)cc2C)nc1=O` [Compound I-0244]: below 0.01 µM; `COc1cn(Cc2ccccc2)c(Nc2cc(C(C)(C)C)ccc2C)nc1=O` [Compound I-0500]: 0.01 to 0.1 µM; `COc1cn(Cc2ccc(F)cc2)c(Nc2cc(C)c(F)cc2C)nc1=O` [Compound I-0443]: below 0.01 µM. Consider `COc1cn(Cc2ccc(F)c(Cl)c2)c(Nc2cc(N3CCCS3(=O)=O)ccc2C)nc1=O` [Compound I-0232], for which the IC50 was below 0.01 µM. `CCc1cc(OC)ccc1Nc1nc(=O)c(OC)cn1Cc1ccc(F)c(Cl)c1` [Compound I-0245]: the IC50 was below 0.01 µM. Still for that read-out and setting: next, `COc1cc(C)c(Nc2nc(=O)c(Cl)cn2Cc2cccc(Cl)c2)cc1OC` [Compound I-0346]: below 0.01 µM.

As for `Cc1c(Cl)cccc1Nc1nc(=O)ccn1Cc1ccccc1` [Compound I-0009], the IC50 was below 0.01 µM.

For `CCc1cc(OC)c(OC)cc1Nc1nc(=O)c(OC)cn1Cc1ccccc1` [Compound I-0256], the IC50 was below 0.01 µM. `COc1ccc(C)c(Nc2nc(=O)c(OC)cn2Cc2ccccc2)c1` [Compound I-0074]: the IC50 lay within 0.01 to 0.1 µM. The same measure, in the same setting: under `COc1cn(Cc2ccccc2)c(Nc2cc(-n3c(C)ccc3C)ccc2C)nc1=O` [Compound I-0525] stands 0.1 to 0.5 µM. Regarding `COc1ccc(Nc2nc(=O)c(OC)cn2Cc2ccc(F)c(Cl)c2)c(C)c1` [Compound I-0227], the IC50 was in the range of 0.01 to 0.1 µM.

In the case of `CCc1cc(C)c(C)cc1Nc1nc(=O)c(OC)cn1Cc1ccccc1` [Compound I-0265], the IC50 was below 0.01 µM.

As to `COc1cn(Cc2cc(F)cc(F)c2)c(Nc2ccc(Cl)cc2C)nc1=O` [Compound I-0563], the concentration for half-maximal inhibition (IC50) is 0.01 to 0.1 µM. As to `Cc1cc(C)c(Nc2nc(=O)c(F)cn2Cc2ccc(F)cc2)cc1C` [Compound I-0306], the IC50 is below 0.01 µM. As for `CCc1ccccc1Nc1nc(=O)c(OC)cn1Cc1ccc(Cl)c(F)c1` [Compound I-0225], the IC50 lay within 0.1 to 0.5 µM.

As for `COc1c(C)ccc(Nc2nc(=O)c(OC)cn2Cc2ccccc2)c1C` [Compound I-0410], the IC50 was below 0.01 µM. Same read-out and setting: next, `COc1cn(Cc2ccccc2COC(F)F)c(Nc2cccc(Cl)c2C)nc1=O` [Compound I-0458]: 0.01 to 0.1 µM; `CCc1cc(OC)ccc1Nc1nc(=O)c(OC)cn1Cc1cccc(Cl)c1` [Compound I-0263]: below 0.01 µM.

Still in this assay, the particulars now being: antagonistic activity for the human P2X7 receptor; read-out: IC50.
As for `CCOc1cc(C)c(Nc2nc(=O)c(OC)cn2Cc2cc(F)c(F)c(F)c2)cc1C` [Compound I-0624], the IC50 was below 0.01 µM.

As for `CCOc1cn(Cc2ccc(F)c(Cl)c2)c(Nc2cc(C)cc(OC)c2C)nc1=O` [Compound I-0716], the IC50 is below 0.01 µM. For the compound `Cc1cc2[nH]ccc2cc1Nc1nc(=O)c(F)cn1Cc1ccc(F)c(Cl)c1` [Compound I-1042], the IC50 is below 0.01 µM. Still for that read-out and setting: next, `Cc1cc(OC(F)F)ccc1Nc1nc(=O)c(F)cn1Cc1ccc(F)c(Cl)c1` [Compound I-1063]: 0.01 to 0.1 µM; `COc1cn(Cc2cc(F)cc(F)c2)c(Nc2cc(S(C)(=O)=O)cc(C)c2C)nc1=O` [Compound I-0758]: 0.01 to 0.1 µM; `CCOc1ccc(Nc2nc(=O)c(F)cn2Cc2cc(F)c(F)c(F)c2)c(C)c1` [Compound I-1034]: below 0.01 µM. Take `COc1ccc(Nc2nc(=O)c(F)cn2Cc2cc(F)c(F)c(F)c2)c(C)c1F` [Compound I-1245]: the IC50 was below 0.01 µM. With `COc1cn(Cc2cc(F)cc(Cl)c2)c(Nc2cccc3c(=O)n(C)ccc23)nc1=O` [Compound I-0904], the IC50 is 0.01 to 0.1 µM. Still for that read-out and setting: next, `CCc1cc(Cl)ccc1Nc1nc(=O)c(OC)cn1Cc1cc(F)cc(Cl)c1` [Compound I-0611]: 0.01 to 0.1 µM.

`CCOc1ccc(Nc2nc(=O)c(OC)cn2Cc2ccccc2)c(C)c1` [Compound I-0676]: the IC50 was 0.1 to 0.5 µM.

As to `CCc1cc2c(cc1Nc1nc(=O)c(OC)cn1Cc1ccc(F)c(Cl)c1)OC(F)(F)O2` [Compound I-0730], the IC50 was 0.01 to 0.1 µM. For the compound `COc1cn(Cc2cc(F)c(F)c(F)c2)c(Nc2cc(OC(F)F)c(C)cc2C)nc1=O` [Compound I-0805], the IC50 was below 0.01 µM.

Take `CCOc1ccc(Nc2nc(=O)c(OC)cn2Cc2ccc(F)c(F)c2)c(C)c1` [Compound I-0678]: the IC50 was below 0.01 µM.

As for `COc1cc(C)c(Nc2nc(=NC#N)c(OC)cn2Cc2cc(F)c(F)c(F)c2)cc1OC` [Compound I-1287], the IC50 was in the range of 0.01 to 0.1 µM.

With `COc1cn(Cc2ccc(F)c(Cl)c2)c(Nc2cc(OC(F)F)ccc2C)nc1=O` [Compound I-0871], the IC50 lay in the range of 0.01 to 0.1 µM. In the case of `COc1cn(Cc2cc(F)cc(Cl)c2)c(Nc2cc(C)cc3[nH]ccc23)nc1=O` [Compound I-0649], the IC50 was in the range of 0.01 to 0.1 µM. Consider `COc1cn(Cc2ccccc2)c(Nc2cc(OC3CC3)ccc2C)nc1=O` [Compound I-0888], for which the half-maximal inhibitory concentration (IC50) fell in the range of 0.01 to 0.1 µM. Turning to `COc1cc(C)c(Nc2nc(=O)c(CO)nn2Cc2cc(F)c(F)c(F)c2)cc1OC` [Compound I-1256], the IC50 lay in the range of 0.01 to 0.1 µM.

Turning to `Cc1cc(Nc2nc(=O)c(F)cn2Cc2cc(F)cc(F)c2)c(C)cc1Cl` [Compound I-1206], the IC50 was below 0.01 µM.

In the case of `COc1cn(Cc2ccc(F)c(F)c2)c(Nc2cc(-c3ccc(C)o3)ccc2C)nc1=O` [Compound I-0767], the IC50 was 0.01 to 0.1 µM. The same measure, in the same setting: next, `COc1cn(Cc2ccc(F)c(F)c2)c(Nc2cc(OC(F)(F)F)ccc2C)nc1=O` [Compound I-0693]: 0.01 to 0.1 µM; `Cc1cc(OC(F)F)ccc1Nc1nc(=O)c(F)cn1Cc1ccc(F)c(F)c1` [Compound I-1065]: 0.01 to 0.1 µM; `COc1ccc(Nc2nc(=O)c(Cl)cn2Cc2cc(F)cc(F)c2)c(C)c1` [Compound I-0845]: 0.01 to 0.1 µM.

On to `Cc1nc2cc(C)c(Nc3nc(=O)c(F)cn3Cc3cc(F)cc(F)c3)cc2s1` [Compound I-1009], for which the IC50 is below 0.01 µM.
